Each structure is given as a SMILES string.

Test [1] deals with regenerating sensory axons of the injured sciatic nerve. Description: Sciatic nerve pinch test after sciatic nerve crush injury. The note with it: 3 days post-injury. The class given is in vivo, mice. How it is done:
Sciatic nerve crush or transection injury was performed in anesthetized adult male C57BL/6 or Fmn2^−/− mice (8-12 weeks old) as previously described. Briefly, the left sciatic nerve was exposed at mid-thigh level. For crush injury, the exposed nerve was crushed with smooth forceps (Dumont #5/45 Forceps, Fine Science Tools) at the sciatic notch for 15 seconds. For sciatic nerve transection, an epineural suture was first made at the level of external rotator muscle, just distal to the sciatic notch. The exposed nerve was then transected using a pair of ophthalmic microscissors just distal to the suture. After injury, the overlying muscle and skin were sutured using a 5-0 suture (Ethilon), and the mice were allowed to recover on a heated pad, and returned to their home cages after recovery. The surgeon was blinded to the genotypes and treatments.
For in vivo gene silencing of Fmn2 and/or Hdac5 in DRGs, AAV2/9-Fmn2-shRNA and AAV2/9-Hdac5-shRNA at a titer of 5×10^12 vg/mL (OBIO Technology) were injected into the sciatic nerve directly through a glass micropipette using a microinjector (Harvard Apparatus) two weeks before sciatic nerve crush injury. The mice were then subjected to sciatic nerve crush injury and sciatic nerve pinch test (FIG. 4) and animal behavioural assessment (FIG. 15). The expression of shRNAs was under the control of the U6 promoter, and the expression of the reporter gene eGFP was under the control of the CAG promoter. AAV2/9-scr-shRNA (Packgene) was used as a negative control (see FIG. 22 for the shRNA sequences). On a separate batch of animals, the knockdown efficiency in DRGs was assessed by Western blot analysis in AAV2-Fmn2-shRNA and AAV2-Hdac5-shRNA mice two weeks after the AAV injection (FIGS. S8B and S9). […]
Sciatic nerve pinch test was performed in the ipsilateral side 3 days after sciatic nerve crush injury. […] The distance (in mm) representing the length of axonal regrowth was recorded from the crushed site to the most distal point of sciatic nerve whereas initial withdrawal reflex was observed after pinching. […]

The subject of test [2] is sensory function of injured hindlimb. In words: Pinprick assay (sensory function recovery) after sciatic nerve crush. In kind it is in vivo, mice. As to the method: Adult male Fmn2^−/− mice (8-12 weeks old) and their age-matched WT littermates, or adult male C57BL/6 mice (for whole-body X-ray, AAV2/9-Fmn2-shRNA and metaxalone experiments) were trained and habituated one week before the sciatic nerve crush injury. After three independent training sessions (30 minutes per session with two days break), baseline values were taken, and sciatic nerve crush injury were performed one day after the baseline recordings. Function recovery was monitored for 30 days. On day 3 after the sciatic nerve crush, we first perform pinprick assay and followed by motor function assays every other day in a sequential manner (toe spreading, grip strength, and sciatic functional index) with 30 mins apart from each test. Animal behavioural tests were done blinded to the surgery and genotypes.
Mice were placed singly in small wire-mesh cages for 30-minutes habituation, an insect pin (Fine Science Tools) were applied to the lateral plantar surface of the ipsilateral hindlimb from toe to heel. The lateral planar surface was divided into 5 different areas, from the most distal toe (score=5) to the heel (score=1). The mouse was scored for that area if a brisk withdrawal response of hind paw was observed. The mouse was scored 0 if no withdrawal responses were observed after insect pin was applied to all 5 areas. Saphenous innervated area of the same hindlimb was tested as a positive control if there was no positive response from these five areas. Two rounds of pinprick assay were performed (with a 30-minute time interval) in each mouse to confirm the score.
To examine the therapeutic potential of metaxalone, adult mice received daily intraperitoneal injection of metaxalone at 10 mg/kg immediately after injury for 21 consecutive days (i.e., metaxalone treatment) or delaying daily intraperitoneal injection of metaxalone at 10 mg/kg to 24 hours post-injury for 20 consecutive days (i.e., delayed metaxalone treatment), and all metaxalone treatments ended on day 21 post-injury. The mice were then subjected to sensory and motor function recovery tests and weekly EMG recordings for 28 days post-injury.

Consider `Cc1cc(C)cc(OCC2CNC(=O)O2)c1` (stereo not drawn) [metaxalone], for which the “distal sensory axonal regrowth (length)” value in test [1] (0.25 μg/μl to the site of injury immediately after crush, twice per day, 3 consecutive days) is recorded as 4.82±0.32 mm. In test [1] (treatment delayed by 24 hours, 0.25 μg/μl to site of injury for 2 consecutive days), the “axonal regrowth (length), delayed treatment” value is recorded as 4.50±0.25 mm. For the same compound, the “initial response to pinprick stimuli (reaching score 1), delayed treatment” value in test [2] (10 mg/kg intraperitoneally daily, delayed to 24 hours post-injury, 20 days) worked out at 10 day post-injury. Also, in test [2] (10 mg/kg intraperitoneally delayed to 24 hours post-injury), the “full sensory pinprick response regained earlier than vehicle controls, delayed treatment” value stood at 2 days. In addition, the “full sensory pinprick response regained earlier than vehicle controls” value in test [2] (10 mg/kg intraperitoneally immediately after PNI) stood at 4 days. Also, in test [2] (10 mg/kg intraperitoneally once a day immediately after PNI for 21 days), the “initial response to pinprick stimuli (reaching score 1)” value is listed as 9 day post-injury.

For the origin of these results see patent US20250122253A1, “REGULATING MICROTUBULE DYNAMICS AS A THERAPEUTIC TARGET FOR NERVE REPAIR” (City University of Hong Kong, priority 2023, published 2025).
